The target in one data set is T1, CYP 2B6 (Homo sapiens, UniProt P20813).
T1 construct: 0.5 mg/mL HLM, 1 mmol/L NADPH, and a cocktail of 10 probe substrates for 9 CYP isoforms; tissue BD (Woburn, USA); host or cells: pooled human liver microsomes
T1 sequence (P20813 1-491): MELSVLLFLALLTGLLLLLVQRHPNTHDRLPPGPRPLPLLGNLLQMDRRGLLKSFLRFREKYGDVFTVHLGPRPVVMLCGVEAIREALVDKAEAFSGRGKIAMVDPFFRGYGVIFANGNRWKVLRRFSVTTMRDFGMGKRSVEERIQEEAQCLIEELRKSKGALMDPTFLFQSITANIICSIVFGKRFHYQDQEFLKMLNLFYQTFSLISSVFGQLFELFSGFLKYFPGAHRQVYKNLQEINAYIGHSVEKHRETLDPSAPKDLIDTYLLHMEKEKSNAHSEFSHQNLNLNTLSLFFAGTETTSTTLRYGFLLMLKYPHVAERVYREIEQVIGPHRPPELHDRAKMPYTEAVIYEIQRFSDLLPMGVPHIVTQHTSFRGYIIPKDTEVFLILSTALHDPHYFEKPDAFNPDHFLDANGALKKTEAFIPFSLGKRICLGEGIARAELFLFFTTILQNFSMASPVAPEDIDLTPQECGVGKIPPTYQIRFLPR
As to the kind of experiment: CYP inhibition, cocktail-substrate method in HLM. It is filed as in vitro ADME. Particulars: probe bupropion. How it is done: (§1) To assess the CYP inhibition profiling of ammoxetine, a high-throughput assay based on the cocktail-substrate method was performed, as described in the literature ([Kim et al., 2005]; [Kozakai et al., 2014]). Microsomal incubations were conducted in triplicate for 30 min at 37°C in a reaction system (200 μL) consisting of […] potassium phosphate buffer (pH 7.4), 0.5 mg/mL HLM, 1 mmol/L NADPH, and a cocktail of 10 probe substrates for 9 CYP isoforms. The final concentration of each CYP-specific substrate was chosen to be close to the Michaelis-Menten constant (K m ) value of the respective substrate ([Kim et al., 2005]; [Lee et al., 2024]). For instance, phenacetin (CYP 1A2) was used at a concentration of 50 μmol/L, coumarin (CYP 2A6) at 5 μmol/L, bupropion (CYP 2B6) at 50 μmol/L, amodiaquine (CYP 2C8) at 5 μmol/L, tolbutamide (CYP 2C9) at 100 μmol/L, S-mephenytoin (CYP 2C19) at 100 μmol/L, dextromethorphan (CYP 2D6) at 5 μmol/L, chlorzoxazone (CYP 2E1) at 50 μmol/L, and testosterone and midazolam (CYP 3A4) at 50 μmol/L. Ammoxetine was evaluated at five concentrations: 0.1, 1, 10, 50, and 100 μmol/L. Additionally, a blank control without ammoxetine was included. The incubation was terminated by adding an equal volume of ice-cold acetonitrile/methanol (1:1, v/v) along with the IS, dexmedetomidine (1 ng/mL). After a 20-fold dilution, the mixture was centrifuged at 13,800×g for 10 min at 4°C. The supernatants were used to measure the levels of metabolites from the respective probe substrates using an LC-MS-MS method. The half-maximal inhibitory concentration (IC50) values were subsequently calculated.

For a further data set, the target named is T2, CYP 2C8 (Homo sapiens, UniProt P10632).
T2 construct: 0.5 mg/mL HLM, 1 mmol/L NADPH, and a cocktail of 10 probe substrates for 9 CYP isoforms; tissue BD (Woburn, USA); host or cells: pooled human liver microsomes
T2 sequence (P10632 1-490): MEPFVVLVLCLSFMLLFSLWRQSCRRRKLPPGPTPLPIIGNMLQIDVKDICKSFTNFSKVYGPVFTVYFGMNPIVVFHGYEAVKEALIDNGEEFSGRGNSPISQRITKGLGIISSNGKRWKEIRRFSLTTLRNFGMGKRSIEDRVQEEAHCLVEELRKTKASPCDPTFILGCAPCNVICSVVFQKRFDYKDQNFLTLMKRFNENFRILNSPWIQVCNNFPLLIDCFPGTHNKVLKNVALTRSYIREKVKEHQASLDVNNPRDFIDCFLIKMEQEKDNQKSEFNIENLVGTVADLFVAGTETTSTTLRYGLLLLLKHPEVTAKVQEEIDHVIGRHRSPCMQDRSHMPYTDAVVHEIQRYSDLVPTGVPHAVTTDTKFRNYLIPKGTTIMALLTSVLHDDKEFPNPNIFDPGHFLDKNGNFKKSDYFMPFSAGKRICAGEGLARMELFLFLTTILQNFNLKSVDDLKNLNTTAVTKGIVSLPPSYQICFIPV
As to the kind of experiment: CYP inhibition, cocktail-substrate method in HLM. It is filed as in vitro ADME. Particulars: probe amodiaquine. Here is the method: as §1

Data set [1] in a line: Configurational stability study (in vivo chiral inversion). Also noted: species or system SD rats. As to conditions: rat plasma 2 h after 50 mg/kg oral, chiral HPLC. How it is done:
Twelve SD rats were divided into three groups: a blank control group, an S-071031B group (50 mg/kg), and an R-071031B group (50 mg/kg). Prior to administration, the animals underwent a 12-h fasting period while having access to water. At 2 h post-dosing, the rats were anesthetized, and blood samples were collected from the abdominal aorta into heparinized tubes. Plasma samples were obtained by centrifuging the collected blood at 2,000×g for 10 min to remove blood cells. Subsequently, 1 mL of plasma sample was mixed with 100 μL of 0.1% sodium hydroxide solution and 4 mL of ether. After centrifugation at 2,000×g for 10 min, the upper organic phase within each group was combined, transferred to a new tube, and dried under a stream of nitrogen. The resulting residues were reconstituted with 100 μL of methanol for subsequent HPLC analysis.
A chiral chromatographic column was employed to separate the enantiomers, and the RT of X-071031B (racemic 071031B) and S-071031B (ammoxetine) standards were determined for identification. Plasma samples were collected from rats 2 h after oral administration of 50 mg/kg of S-071031B or R-071031B. The presence of a chromatographic peak at the RT corresponding to the opposite enantiomer following the administration of the S-isomer would indicate the conversion of the S-isomer to the R-isomer in rats. […]

The results in this text go back to paper PMC11579541, “In vitro, in vivo, and in silico approaches for evaluating the preclinical DMPK profiles of ammoxetine, a novel chiral serotonin and norepinephrine reuptake inhibitor” (Frontiers in Pharmacology, 2024).

The IC50 is the point on the concentration scale where inhibition reaches its midpoint. Low values mean higher potency, high ones lower potency. In the case of `CNCC[C@H](Oc1cccc2c1OCO2)c1cccs1` [ammoxetine], the IC50 against CYP 2B6 and on CYP 2C8 was over 100 µM throughout. Moreover, the “chiral inversion in vivo” value in data set [1] is “does not undergo conversion to R-071031B”.
